According to DBAASP:
≈ marks a conversion by molar mass, not a printed value.

Legend:
Experiment in all cases: ≥ marks a high value that may be exact or a test limit, other limits are often not marked, values filed in µg/mL are converted to µM
[1] = tested on: Acinetobacter baumannii
[2] = tested on: Enterococcus faecalis ATCC 29212
[3] = tested on: Escherichia coli ATCC 25922
[4] = tested on: Pseudomonas aeruginosa ATCC 27853
[5] = tested on: Staphylococcus aureus ATCC 29213
[6] = tested on: Bacillus subtilis ATCC 23857
[7] = tested on: Candida albicans ATCC 10231
[8] = tested on: Acinetobacter baumannii ATCC 19606
[9] = tested on: Klebsiella pneumoniae ATCC 700603
[10] = tested on: Staphylococcus aureus ATCC 25923
[11] = tested on: Staphylococcus epidermidis ATCC 12228
[12] = tested on: Klebsiella pneumoniae ATCC 13883
[13] = tested on: Pseudomonas aeruginosa PAO1
[14] = tested on: Staphylococcus aureus USA 300
[15] = tested on: Pseudomonas aeruginosa ATCC 9027
[16] = tested on: Escherichia coli
[17] = tested on: Staphylococcus aureus
[18] = tested on: Staphylococcus aureus ATCC 33591
[19] = tested on: Bacillus cereus

Structure (SMILES)	MIC [2] [µM]	MIC [3] [µM]	MIC [4] [µM]	MIC [6] [µM]	MIC [8] [µM]	MIC [9] [µM]	MIC [10] [µM]	further results
CC(C)C[C@H](NC(=O)[C@H](CC(C)C)NC(=O)[C@H](CCCN=C(N)N)NC(=O)[C@H](CCCCN)NC(=O)[C@H](CCCN=C(N)N)NC(=O)[C@H](CC(C)C)NC(=O)[C@H](CCCCN)NC(=O)[C@H](CCCN=C(N)N)NC(=O)[C@H](CC(C)C)NC(=O)[C@@H](N)CS)C(=O)N[C@@H](CS)C(=O)O [CLRKLRKRLLC]	> 22.8	17.1 (≈ 24 µg/mL)	> 22.8					MIC [1]: 22.8 µM (≈ 32 µg/mL); MIC [5]: > 22.8 µM
NC(=O)[C@H](CCCN=C(N)N)NC(=O)[C@H](CCCN=C(N)N)NC(=O)[C@H](Cc1ccccc1)NC(=O)[C@H](Cc1ccccc1)NC(=O)[C@H](CCCN=C(N)N)NC(=O)[C@H](CCCN=C(N)N)NC(=O)[C@H](Cc1ccccc1)NC(=O)[C@@H](N)Cc1ccccc1 [FFRRFFRR]				≥ 102				MIC [7]: > 406 µM
C[C@H](NC(=O)[C@H](C)NC(=O)[C@@H](NC(=O)[C@H](CCCCN)NC(=O)[C@H](C)NC(=O)[C@H](CCCN=C(N)N)NC(=O)[C@H](CCCCN)NC(=O)[C@H](C)NC(=O)[C@H](C)NC(=O)CN)[C@@H](C)O)C(N)=O [GAAKRAKTAA]	> 512	> 512	> 512	≥ 512	> 512	> 512	> 512	MIC [11]: > 512 µM
CC(C)C[C@H](NC(=O)[C@H](CC(C)C)NC(=O)[C@H](CCCCN)NC(=O)[C@H](CC(C)C)NC(=O)CNC(=O)[C@H](CC(C)C)NC(=O)[C@H](CO)NC(=O)[C@H](CC(C)C)NC(=O)[C@H](CC(C)C)NC(=O)[C@H](CO)NC(=O)[C@H](CC(C)C)NC(=O)[C@H](CC(C)C)NC(=O)CN)C(N)=O [GLLSLLSLGLKLL]		> 25						MIC [12]: 25 µM (≈ 33.5 µg/mL); MIC [13]: > 25 µM; MIC [14]: 0.8 µM (≈ 1.07 µg/mL)
CC(C)C[C@H](NC(=O)CN)C(=O)N[C@@H](CC(C)C)C(=O)N[C@@H](CO)C(=O)N[C@@H](CC(C)C)C(=O)N[C@@H](CC(C)C)C(=O)N[C@@H](CO)C(=O)N[C@@H](CC(C)C)C(=O)N[C@@H](CC(C)C)C(=O)NCC(=O)N[C@@H](CCCCN)C(=O)N[C@@H](CC(C)C)C(=O)N[C@@H](C)C(N)=O [GLLSLLSLLGKLA]		2.16 (≈ 2.8 µg/mL)						MIC [12]: 17.7 µM (≈ 22.9 µg/mL); MIC [13]: > 25 µM; MIC [14]: 1.56 µM (≈ 2.02 µg/mL)
CC[C@H](C)[C@H](NC(=O)[C@H](CCCN=C(N)N)NC(=O)[C@H](CCCCN)NC(=O)[C@H](Cc1ccccc1)NC(=O)[C@H](Cc1c[nH]c2ccccc12)NC(=O)CN)C(=O)N[C@@H](CCCCN)C(=O)N[C@H](C(=O)N[C@@H](Cc1ccccc1)C(=O)N[C@@H](Cc1c[nH]c2ccccc12)C(N)=O)[C@@H](C)O [GWFKRIKTFW]	64 (≈ 87.5 µg/mL)	16 (≈ 21.9 µg/mL)	8 (≈ 10.9 µg/mL)	4 (≈ 5.47 µg/mL)	64 (≈ 87.5 µg/mL)	32 (≈ 43.8 µg/mL)	16 (≈ 21.9 µg/mL)	MIC [11]: 4 µM (≈ 5.47 µg/mL)
CC[C@H](C)[C@H](N)C(=O)N[C@H](C(=O)N[C@H](C(=O)N[C@@H](CCCCN)C(=O)N[C@@H](CO)C(=O)N[C@@H](CC(C)C)C(=O)NCC(=O)N[C@@H](CCCCN)C(=O)N[C@@H](Cc1ccccc1)C(=O)N[C@@H](CC(C)C)C(=O)N[C@@H](CCCCN)C(=O)N[C@@H](CC(N)=O)C(=O)N[C@H](C(=O)NCC(=O)NCC(=O)N[C@@H](Cc1ccccc1)C(=O)N[C@@H](C)C(=O)NCC(=O)O)C(C)C)[C@@H](C)CC)C(C)C [IVIKSLGKFLKNVGGFAG]		> 64				> 64	> 64	MIC [1]: ≥ 64 µM; MIC [15]: > 64 µM
NCCCC[C@H](NC(=O)[C@H](CCCCN)NC(=O)[C@H](Cc1c[nH]c2ccccc12)NC(=O)[C@H](CCCN=C(N)N)NC(=O)[C@H](CCCCN)NC(=O)[C@H](Cc1c[nH]c2ccccc12)NC(=O)[C@H](Cc1c[nH]c2ccccc12)NC(=O)[C@@H](N)CCCCN)C(=O)N[C@@H](Cc1c[nH]c2ccccc12)C(=O)N[C@@H](Cc1c[nH]c2ccccc12)C(N)=O [KWWKRWKKWW]	16 (≈ 25.9 µg/mL)	16 (≈ 25.9 µg/mL)	8 (≈ 12.9 µg/mL)	4 (≈ 6.47 µg/mL)	8 (≈ 12.9 µg/mL)	16 (≈ 25.9 µg/mL)	8 (≈ 12.9 µg/mL)	MIC [11]: 8 µM (≈ 12.9 µg/mL)
CC(C)C[C@H](NC(=O)[C@H](C)NC(=O)[C@H](CCCCN)NC(=O)[C@H](CC(C)C)NC(=O)[C@H](CC(N)=O)NC(=O)[C@@H](N)CC(C)C)C(=O)N[C@@H](CC(C)C)C(=O)N[C@@H](C)C(=O)N[C@H](C(=O)N[C@@H](C)C(=O)N[C@@H](CCCCN)C(N)=O)C(C)C [LNLKALLAVAK]		> 128		≥ 128		> 128	> 128	MIC [15]: > 128 µM
CC(C)C[C@H](NC(=O)[C@@H]1CCCN1C(=O)[C@H](CCCN=C(N)N)NC(=O)[C@H](Cc1ccc(O)cc1)NC(=O)[C@@H](NC(=O)[C@@H]1CCCN1C(=O)[C@H](CCCN=C(N)N)NC(=O)[C@H](Cc1ccc(O)cc1)NC(=O)[C@@H]1CCCN1C(=O)[C@@H]1CCCN1C(=O)[C@@H]1CCCN1C(=O)[C@H](CCCN=C(N)N)NC(=O)[C@H](Cc1ccc(O)cc1)NC(=O)[C@@H](NC(=O)[C@H](CC(N)=O)NC(=O)[C@@H](N)CO)C(C)C)C(C)C)C(=O)N[C@@H](CCCN=C(N)N)C(=O)N[C@@H](CCCN=C(N)N)C(=O)N1CCC[C@H]1C(=O)NCC(=O)N[C@@H](Cc1ccc(O)cc1)C(=O)N[C@@H](CCCN=C(N)N)C(=O)N1CCC[C@H]1C(N)=O [SNVYRPPPYRPVYRPLRRPGYRP]		1 (≈ 2.86 µg/mL)			2 (≈ 5.71 µg/mL)			MIC [1]: 2 µM (≈ 5.71 µg/mL); MIC [16]: 2 µM (≈ 5.71 µg/mL); MIC [5]: 2 µM (≈ 5.71 µg/mL); MIC [17]: 32 µM (≈ 91.4 µg/mL)
C[C@@H](O)[C@H](NC(=O)[C@H](CCCN=C(N)N)NC(=O)[C@H](CCCN=C(N)N)NC(=O)[C@H](CCCN=C(N)N)NC(=O)[C@@H]1CCCN1C(=O)[C@@H](N)CO)C(=O)N1CCC[C@H]1C(=O)N[C@@H](CO)C(=O)N1CCC[C@H]1C(=O)N[C@@H](CCCN=C(N)N)C(=O)N[C@@H](CCCN=C(N)N)C(=O)N[C@@H](CCCN=C(N)N)C(=O)N[C@@H](CCCN=C(N)N)C(=O)N[C@@H](CO)C(=O)N[C@@H](CCC(N)=O)C(=O)N[C@@H](CO)C(=O)N1CCC[C@H]1C(=O)N[C@@H](CCCN=C(N)N)C(=O)N[C@@H](CCCN=C(N)N)C(=O)N[C@@H](CCCN=C(N)N)C(N)=O [SPRRRTPSPRRRRSQSPRRR]		25 (≈ 63.6 µg/mL)	100 (≈ 254 µg/mL)				> 100	MIC [18]: ≥ 100 µM
CC[C@H](C)[C@H](NC(=O)[C@H](Cc1ccc(O)cc1)NC(=O)[C@@H](NC(=O)[C@@H](NC(=O)[C@H](C)NC(=O)[C@@H]1CCCN1C(=O)[C@@H](NC(=O)[C@H](CO)NC(=O)[C@H](CS)NC(=O)[C@H](CCCCN)NC(=O)[C@@H](NC(=O)[C@H](CCCCN)NC(=O)[C@@H](N)C(C)C)[C@@H](C)O)C(C)C)C(C)C)C(C)C)C(=O)N[C@@H](CC(C)C)C(=O)N[C@H](C(=O)N[C@@H](CCCCN)C(=O)N[C@H](C(=O)N[C@@H](Cc1ccccc1)C(=O)N[C@@H](CCCCN)C(=O)N[C@@H](CO)C(=O)O)[C@@H](C)O)C(C)C [VKTKCSVPAVVYILVKTFKS]								MIC [19]: ≥ 116 µM; MIC [16]: > 116 µM
